# Like-named read-outs stand apart in the source and are kept apart here.
# How the values were obtained:
# Assay type in all cases: in vivo
# [1] = test system: barnyardgrass (Echinochloa oryzicola vasing.); assay: Test Example 3, paddy field pot, application to irrigated water; conditions: applied at 0.5 leaf stage, 13th to 17th day after application, read-out: Growth inhibition rate (%) barnyard grass
# Source text: (§1) Paddy field soil was put into a 1/1,000,000 hectare pot, and seeds of barnyardgrass (Echinochloa oryzicola vasing.) and Japanese bulrush (Scirpus juncoides) were sown and lightly covered with soil. Then, pot was left to stand in a greenhouse in a state irrigated to a water depth of from 0.5 to 1 cm, and next day or two days later, tubers of Japanese ribbon waparo (Sagittaria pygmaea) were planted. Then, the irrigated water depth was maintained to be from 3 to 4 cm, and when barnyardgrass and Japanese bulrush reached 0.5 leaf stage, and Japanese ribbon waparo reached primary leaf stage, a water diluted solution of a wettable powder or an emulsifiable concentrate of the compound of the present invention prepared in accordance with a conventional preparation method, was uniformly dropwise applied by a pipette so that the amount of active ingredients would be a prescribed amount. Further, paddy field soil was put into a 1/1,000,000 pot, followed by soil puddling to an irrigated water depth of from 3 to 4 cm. Next day, rice (Oryza sativa L.) (var.: Nihonbare) of two leaf stage was transplanted in a transplantation depth of 3 cm. On the 4th day after transplantation, the compound of the present invention was applied in the same manner as described above.
# (§2) On the 13th to 17th day after application, the state of growth of barnyardgrass, Japanese bulrush and Japanese ribbon waparo was visually observed, and on the 20th to 23rd day after application, the state of growth of rice was visually observed, and the herbicidal effect was evaluated by a growth inhibition rate (%) of 0 (equivalent to the non-treated area) to 100% (complete kill).
# [2] = test system: Japanese bulrush (Scirpus juncoides); assay: as above; conditions: Schoenoplectiella juncoides, applied at 0.5 leaf stage, 13th to 17th day after application, read-out: Growth inhibition rate (%) Japanese bulrush
# Source text: as §1, §2
# [3] = test system: barnyardgrass (Echinochloa crus-galli L.); assay: Test Example 2, soil application on the day after sowing; conditions: 21st to 22nd day after application, visual, read-out: Growth inhibition rate (%) Barnyardgrass
# Source text: (§3) Upland field soil was put into a 1/170,000 hectare pot, and seeds of various plants (barnyardgrass (Echinochloa crus-galli L.), crabgrass (Digitaria sanquinalis L.), green foxtail (Setaria viridis L.), redroot pigweed (Amaranthus retroflexus L.), prickly sida (Sida spinosa L.), velvetleaf (Abutilon theophrasti MEDIC.), rice (Oryza sativa L.), corn (Zea mays L.), soybean (Glycine max Merr.)) and wheat (Triticum spp.) were sown. On the day after sowing, wettable powders or emulsifiable concentrates of the compounds of the present invention prepared in accordance with a conventional preparation method, were weighed so that the active ingredients became the prescribed amounts, and diluted with water in an amount corresponding to 500 liter per 1 hectare, followed by soil application with a small sprayer.
# (§4) On the 21st to 22nd day after the application, the state of growth of the respective plants was visually observed, and the herbicidal effect was evaluated by a growth inhibition rate (%) of from 0 (equivalent to the non-treated area) to 100% (complete kill).
# [4] = test system: velvetleaf (Abutilon theophrasti MEDIC.); assay: as above; conditions: 21st to 22nd day after application, visual, read-out: Growth inhibition rate (%) Velvetleaf
# Source text: as §3, §4
# rice (Oryza sativa L.) [5] = assay: as above; conditions: 21st to 22nd day after application, visual, read-out: Growth inhibition rate (%) Rice
# Source text: as §3, §4
# corn (Zea mays L.) [6] = assay: as above; conditions: 21st to 22nd day after application, visual, read-out: Growth inhibition rate (%) Corn
# Source text: as §3, §4
# [7] = test system: redroot pigweed (Amaranthus retroflexus L.); assay: as above; conditions: 21st to 22nd day after application, visual, read-out: Growth inhibition rate (%) Redroot pigweed
# Source text: as §3, §4
# [8] = test system: green foxtail (Setaria viridis L.); assay: as above; conditions: 21st to 22nd day after application, visual, read-out: Growth inhibition rate (%) Green foxtail
# Source text: as §3, §4
# [9] = test system: prickly sida (Sida spinosa L.); assay: as above; conditions: 21st to 22nd day after application, visual, read-out: Growth inhibition rate (%) Prickly sida
# Source text: as §3, §4
# [10] = test system: crabgrass (Digitaria sanquinalis L.); assay: as above; conditions: 21st to 22nd day after application, visual, read-out: Growth inhibition rate (%) Crabgrass
# Source text: as §3, §4
# wheat (Triticum spp.) [11] = assay: as above; conditions: 21st to 22nd day after application, visual, read-out: Growth inhibition rate (%) Wheat
# Source text: as §3, §4
# [12] = test system: barnyardgrass (Echinochloa crus-galli L.); assay: Test Example 1, foliar treatment in upland pots; conditions: 20th to 22nd day after application, visual, read-out: Growth inhibition rate (%) Barnyardgrass
# Source text: (§5) Upland field soil was put into a 1/170,000 hectare pot, and seeds of various plants were sown. When the respective plants reached predetermined leaf stage ((1) barnyardgrass (Echinochloa crus-galli L.): 1.2 to 3.0 leaf stage, (2) crabgrass (Digitaria sanguinalis L.): 1.0 to 3.0 leaf stage, (3) green foxtail (Setaria viridis L.): 1.5 to 3.0 leaf stage, (4) redroot pigweed (Amaranthus retroflexus L.): cotyledon stage to 1.5 leaf stage, (5) prickly sida (Sida spinosa L.): cotyledon stage to 2.0 leaf stage, (6) velvetleaf (Abutilon theophrasti MEDIC.): cotyledon stage to 1.3 leaf stage, (7) rice (Oryza sativa L.): 1.2 to 2.5 leaf stage, (8) corn (Zea mays L.): 2.0 to 3.3 leaf stage, (9) soybean (Glycine max Merr.): primary leaf stage to 0.3 leaf stage) and wheat (Triticum spp.): 2.0 to 3.0 leaf stage, wettable powders or emulsifiable concentrates of the compounds of the present invention prepared in accordance with a conventional preparation method, were weighed so that the active ingredients became the prescribed amounts, and diluted with water in an amount corresponding to 500 liter per 1 hectare (containing 0.1 vol % of an agricultural spreader (“KUSARINOH”, manufactured by NIHON NOHYAKU CO., LTD.)). The spray solutions thus prepared were applied for foliar treatment by a small sprayer.
# (§6) On the 20th to 22nd day after application, the state of growth of the respective plants was visually observed, and the herbicidal effect was evaluated by a growth inhibition rate (%) of 0 (equivalent to the non-treated area) to 100% (complete kill).
# [13] = test system: velvetleaf (Abutilon theophrasti MEDIC.); assay: Test Example 1, foliar treatment in upland pots; conditions: 20th to 22nd day after application, visual, read-out: Growth inhibition rate (%) Velvetleaf
# Source text: as §5, §6
# rice (Oryza sativa L.) [14] = assay: Test Example 1, foliar treatment in upland pots; conditions: 20th to 22nd day after application, visual, read-out: Growth inhibition rate (%) Rice
# Source text: as §5, §6
# corn (Zea mays L.) [15] = assay: Test Example 1, foliar treatment in upland pots; conditions: 20th to 22nd day after application, visual, read-out: Growth inhibition rate (%) Corn
# Source text: as §5, §6
# [16] = test system: crabgrass (Digitaria sanguinalis L.); assay: Test Example 1, foliar treatment in upland pots; conditions: 20th to 22nd day after application, visual, read-out: Growth inhibition rate (%) Crabgrass
# Source text: as §5, §6
# [17] = test system: soybean (Glycine max Merr.); assay: Test Example 1, foliar treatment in upland pots; conditions: 20th to 22nd day after application, visual, read-out: Growth inhibition rate (%) Soybean
# Source text: as §5, §6
# [18] = test system: redroot pigweed (Amaranthus retroflexus L.); assay: Test Example 1, foliar treatment in upland pots; conditions: 20th to 22nd day after application, visual, read-out: Growth inhibition rate (%) Redroot pigweed
# Source text: as §5, §6
# [19] = test system: green foxtail (Setaria viridis L.); assay: Test Example 1, foliar treatment in upland pots; conditions: 20th to 22nd day after application, visual, read-out: Growth inhibition rate (%) Green foxtail
# Source text: as §5, §6
# [20] = test system: prickly sida (Sida spinosa L.); assay: Test Example 1, foliar treatment in upland pots; conditions: 20th to 22nd day after application, visual, read-out: Growth inhibition rate (%) Prickly sida
# Source text: as §5, §6
# wheat (Triticum spp.) [21] = assay: Test Example 1, foliar treatment in upland pots; conditions: 20th to 22nd day after application, visual, read-out: Growth inhibition rate (%) Wheat
# Source text: as §5, §6
# [22] = test system: rice (Oryza sativa L.) (var.: Nihonbare); assay: Test Example 3, paddy field pot, transplanted rice; conditions: applied 4th day after transplantation, 20th to 23rd day after application, read-out: Growth inhibition rate (%) Rice
# Source text: as §1, §2
# [23] = test system: sorgo (Sorghum bicolor Moench) (var.: Lucky Sorgo); assay: Test Example 6, soil column downward movement, sorgo bioassay; conditions: 14th day after sowing
# Protocol: Soil (sterilized soil:sand=3:1) was packed (4 L) into a column (9.5 cm in diameter×40 cm in height, application area: 0.007 m^2), and tap water was dropped from above by a Peristaltic pump before application of the herbicide for the purpose of maintaining the soil moisture to be uniform. Then, 10 mL of a spray solution prepared so that each agent (Compound No. 2-1, the above Reference Compounds 1 and 2) would be at a concentration corresponding to 250 g/ha was dropwise applied by a pipette. After application, water was dropped again at a rate of 400 mL/hr for about 3 hours by means of a Peristaltic pump. After the dropping, the column was left to stand for 1 day, and then the column was vertically evenly divided and seeds of sorgo (Sorghum bicolor Moench) (var.: Lucky Sorgo) were sown in a row. On the 14th day after sowing, the state of growth of the plant was visually observed at 3 cm intervals from the application point of the agent, whereby the germination and the degree of growth were evaluated by a growth inhibition rate (%) of 0 (equivalent to the non-treated area) to 100% (complete kill) to obtain the results in Table 17.
# From the above results, the growth inhibition rates of Reference Compounds No. 1 and No. 2 are observed in depths deeper than that of Compound No. 2-1. […] Whereas, Compound No. 2-1 stayed at a shallow portion of soil (in a layer of from 0 to 9 cm).
# [24] = test system: giant foxtail (Setaria faberi Herrm.); assay: Test Example 5, foliar treatment versus Reference Compounds; conditions: 4.0 to 4.5 leaf stage, 20th day after application, read-out: Growth inhibition rate (%) (20th day after application) Giant foxtail
# Source text: (§7) Upland field soil was put into a 1/1,000,000 hectare pot, and seeds of various plants were sown. When the respective plants reached predetermined leaf stage ((1) velvetleaf (Abutilon theophrasti MEDIC.): 3.0 to 3.5 leaf stage, (2) giant foxtail (Setaria faberi Herrm.): 4.0 to 4.5 leaf stage, (3) green foxtail (Setaria viridis L.): 5.0 to 5.5 leaf stage, and (4) corn (Zea mays L.): 4.0 to 4.3 leaf stage, a wettable powder of compound No. 2-1 of the above-mentioned present invention, a wettable powder of the above-mentioned Reference Compound 1 and a wettable powder of the above-mentioned Reference Compound 2, prepared in accordance with a conventional preparation method, were weighed so that the active ingredients became the prescribed amounts, and diluted with water in an amount corresponding to 300 liter per 1 hectare (containing 0.5 vol % of an agricultural spreader (Destiny HC: WINFIELD SOLUTIONS by LLC). The spray solutions thus prepared were applied for foliar treatment by a small sprayer.
# (§8) On the 7th to 20th day after application, the state of growth of the respective plants was visually observed, and the herbicidal effect was evaluated by a growth inhibition rate (%) of 0 (equivalent to the non-treated area) to 100% (complete kill).
# [25] = test system: velvetleaf (Abutilon theophrasti MEDIC.); assay: as above; conditions: 3.0 to 3.5 leaf stage, 20th day after application, read-out: Growth inhibition rate (%) (20th day after application) Velvet leaf
# Source text: as §7, §8
# [26] = test system: green foxtail (Setaria viridis L.); assay: as above; conditions: 5.0 to 5.5 leaf stage, 18th day after application, read-out: Growth inhibition rate (%) (18th day after application) Green foxtail
# Source text: as §7, §8
smiles,measurement,setting,value
"COCCOc1c(S(C)(=O)=O)ccc(C(=O)c2c(C)nn(C(C)C)c2O)c1C [Compound No. 8-2, (5-Hydroxy-1-isopropyl-3-methyl-1H-pyrazol-4-yl)(3-(2-methoxyethoxy)-2-methyl-4-(methylsulfonyl)phenyl)ketone]",inhibition at 63 g/ha,[1],40%
same,inhibition at 63 g/ha,[2],70%
same,inhibition at 250 g/ha,[3],100%
same,inhibition at 250 g/ha,[4],70%
same,inhibition at 250 g/ha,rice (Oryza sativa L.) [5],100%
same,inhibition at 250 g/ha,corn (Zea mays L.) [6],60%
same,inhibition at 250 g/ha,[7],100%
same,inhibition at 250 g/ha,[8],100%
same,inhibition at 250 g/ha,[9],60%
same,inhibition at 250 g/ha,[10],100%
same,inhibition at 250 g/ha,wheat (Triticum spp.) [11],20%
same,inhibition at 7 g/ha,[12],20%
same,inhibition at 7 g/ha,[13],60%
same,inhibition at 7 g/ha,rice (Oryza sativa L.) [14],0%
same,inhibition at 7 g/ha,corn (Zea mays L.) [15],0%
same,inhibition at 7 g/ha,[16],40%
same,inhibition at 7 g/ha,[17],10%
same,inhibition at 7 g/ha,[18],60%
same,inhibition at 7 g/ha,[19],50%
same,inhibition at 7 g/ha,[20],20%
same,inhibition at 7 g/ha,wheat (Triticum spp.) [21],0%
same,inhibition at 63 g/ha,[22],10%
CCn1ncc(C(=O)c2ccc(S(C)(=O)=O)c(OCCOC)c2Cl)c1O [Reference Compound 1],inhibition at 250 g/ha,"[23]; depth 0-3 cm, read-out: Growth inhibition rate (%) against sorgo, Depth (cm) from the applied surface 0-3",58%
same,inhibition at 250 g/ha,"[23]; depth 3-6 cm, read-out: Growth inhibition rate (%) against sorgo, Depth (cm) from the applied surface 3-6",58%
same,inhibition at 250 g/ha,"[23]; depth 6-9 cm, read-out: Growth inhibition rate (%) against sorgo, Depth (cm) from the applied surface 6-9",58%
same,inhibition at 250 g/ha,"[23]; depth 9-12 cm, read-out: Growth inhibition rate (%) against sorgo, Depth (cm) from the applied surface 9-12",60%
same,inhibition at 250 g/ha,"[23]; depth 12-15 cm, read-out: Growth inhibition rate (%) against sorgo, Depth (cm) from the applied surface 12-15",53%
same,inhibition at 250 g/ha,"[23]; depth 15-18 cm, read-out: Growth inhibition rate (%) against sorgo, Depth (cm) from the applied surface 15-18",35%
same,inhibition at 250 g/ha,"[23]; depth 18-21 cm, read-out: Growth inhibition rate (%) against sorgo, Depth (cm) from the applied surface 18-21",28%
same,inhibition at 250 g/ha,"[23]; depth 21-24 cm, read-out: Growth inhibition rate (%) against sorgo, Depth (cm) from the applied surface 21-24",30%
same,inhibition at 250 g/ha,"[23]; depth 24-27 cm, read-out: Growth inhibition rate (%) against sorgo, Depth (cm) from the applied surface 24-27",28%
same,inhibition at 250 g/ha,"[23]; depth 27-30 cm, read-out: Growth inhibition rate (%) against sorgo, Depth (cm) from the applied surface 27-30",15%
same,inhibition at 3.5 g/ha,[24],30%
same,inhibition at 3.5 g/ha,[25],45%
same,inhibition at 7 g/ha,[26],40%

# From US8466089B2, “Pyrazole compounds, process for their production and herbicides containing them” (Ishihara Sangyo Kaisha, Ltd., priority 2008, dated 2013)
